Results as given in patent US20230181611A1, “REELIN/VEGF-C PRODUCTION/ACTIVATION PROMOTER AND SKIN EXTERNAL COMPOSITION USING THE SAME” (AMOREPACIFIC CORPORATION, priority 2021, published 2023).

Experiments:
[1] = system: Human dermal lymphatic endothelial cells (HDLEC); experiment: Cytotoxicity analysis (WST-8 cell viability); format: cell-based; conditions: 0 to 200 ppm (μg/ml), 24 hours and 72 hours, FIG. 1
Description: Human dermal lymphatic endothelial cells (HDLEC, PromoCell, Germany) were newly cultured in 96 well dishes for one day and then treated with a compound represented by Chemical Formula E-1 (Biogenics Company) at each concentration of 0 ppm (μg/ml) to 200 ppm (μg/ml). The cells were cultured for 24 hours and 72 hours, and then measured with respect to absorbance at 450 nm by using a QuantiMax WST-8 Cell viability assay kit to check cell viability, and the results are shown in FIG. 1.

reelin = experiment: Reelin cytokine analysis (ELISA); format: cell-based, human; conditions: HDLEC, 10 ppm, 48 hours, DMSO control = 100%, FIG. 2
Description: After culturing human dermal lymphatic endothelial cells in 6 well plates for 24 hours, while the cells treated with DMSO were used as a control (reference, 100%), the cells were treated with the compound represented by Chemical Formula E-1 at a concentration of 10 ppm and cultured for 48 hours and then measured with respect to production and activity of reelin through a reelin cytokine analysis by using human ELISA Kit (Mybiosource, U.S.A.) according to a manual, and the results are shown in FIG. 2.

VEGF-C = VEGF-C cytokine analysis (ELISA); format: cell-based, human; conditions: HDLEC, 1 ppm and 10 ppm, 48 hours, DMSO control = 100%, FIG. 3
Description: After culturing human dermal lymphatic endothelial cells in 6 well plates for 24 hours, while the cells treated with DMSO as a control (reference, 100%), the cells were treated with the compound represented by Chemical Formula E-1 at each concentration of 1 ppm and 10 ppm and cultured for 48 hours and then measured with respect to production and activity of VEGF-C through a VEGF-C cytokine analysis by using a VEGFC human ELISA Kit (ThermoFisher, U.S.A.) according to a manual, and the results are shown in FIG. 3.

CC1(C)[C@@H](O[C@H]2OC(C(=O)O)[C@@H](O)C(O)C2O[C@@H]2OC(C(=O)O)[C@@H](O)C(O)C2O)CC[C@]2(C)[C@H]3C(=O)C=C4[C@@H]5C[C@@](C)(C(=O)O)CC[C@]5(C)CC[C@@]4(C)[C@]3(C)CC[C@@H]12 (stereo partly drawn) [Chemical Formula E-1]
cytotoxicity (cell viability) [1]: no cytotoxicity
production and activity of reelin compared with the control (reelin): further improve production and activity of reelin
production and activity of VEGF-C compared with the control (VEGF-C): further improve production and activity of VEGF-C
